Source: the supplement of paper PMC10307832

How the values were obtained:
Test in all cases: relative viability (nuclei count vs DMSO), 5 days (fraction); higher = more cells survive
AT9283 + Dasatinib = compound: O=C(Nc1c[nH]nc1-c1nc2ccc(CN3CCOCC3)cc2[nH]1)NC1CC1 [AT9283] + Cc1nc(Nc2ncc(C(=O)Nc3c(C)cccc3Cl)s2)cc(N2CCN(CCO)CC2)n1 [Dasatinib] (partner 0.075 µM)
Procedure, shortened: (§1)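 Dosing by pin tool came one day after lung cancer cell lines were seeded in 1536-well plates, using either one drug or a fixed anchor-drug dose plus five library-drug doses (not always all listed) in √10 steps. After 5 days, nuclei were counted on 4× images. Relative viability is treated-well nuclei count divided by vehicle-well nuclei count, and values are medians of duplicate plates.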

AT9283 + Navitoclax = compound: O=C(Nc1c[nH]nc1-c1nc2ccc(CN3CCOCC3)cc2[nH]1)NC1CC1 [AT9283] + CC1(C)CCC(c2ccc(Cl)cc2)=C(CN2CCN(c3ccc(C(=O)NS(=O)(=O)c4ccc(N[C@H](CCN5CCOCC5)CSc5ccccc5)c(S(=O)(=O)C(F)(F)F)c4)cc3)CC2)C1 [Navitoclax] (partner 0.5 µM)
Procedure, shortened: as §1

AT9283 + OSI-027 = compound: O=C(Nc1c[nH]nc1-c1nc2ccc(CN3CCOCC3)cc2[nH]1)NC1CC1 [AT9283] + COc1cccc2cc(-c3nc([C@H]4CC[C@H](C(=O)O)CC4)n4ncnc(N)c34)[nH]c12 [OSI-027] (partner 0.5 µM)
Procedure, shortened: as §1

AT9283 + AZD7762 = compound: O=C(Nc1c[nH]nc1-c1nc2ccc(CN3CCOCC3)cc2[nH]1)NC1CC1 [AT9283] + NC(=O)Nc1cc(-c2cccc(F)c2)sc1C(=O)N[C@H]1CCCNC1 [AZD7762] (partner 0.2 µM)
Procedure, shortened: as §1

Erlotinib + Decitabine = compound: C#Cc1cccc(Nc2ncnc3cc(OCCOC)c(OCCOC)cc23)c1 [Erlotinib] + Nc1ncn([C@H]2C[C@H](O)[C@@H](CO)O2)c(=O)n1 [Decitabine] (partner 2 µM)
Procedure, shortened: as §1

| Cell Line | relative viability (AT9283 + Dasatinib; first compound 0.003 µM) | relative viability (AT9283 + Dasatinib; first compound 0.03 µM) | relative viability (AT9283 + Dasatinib; first compound 0.09487 µM) | relative viability (AT9283 + Dasatinib; first compound 0.3 µM) | relative viability (AT9283 + Navitoclax; first compound 0.003 µM) | relative viability (AT9283 + Navitoclax; first compound 0.03 µM) | relative viability (AT9283 + Navitoclax; first compound 0.09487 µM) | relative viability (AT9283 + Navitoclax; first compound 0.3 µM) | relative viability (AT9283 + OSI-027; first compound 0.003 µM) | relative viability (AT9283 + OSI-027; first compound 0.03 µM) | relative viability (AT9283 + OSI-027; first compound 0.09487 µM) | relative viability (AT9283 + OSI-027; first compound 0.3 µM) | relative viability (AT9283 + AZD7762; first compound 0.003 µM) | relative viability (AT9283 + AZD7762; first compound 0.03 µM) | relative viability (AT9283 + AZD7762; first compound 0.09487 µM) | relative viability (AT9283 + AZD7762; first compound 0.3 µM) | relative viability (Erlotinib + Decitabine; first compound 0.02 µM) | relative viability (Erlotinib + Decitabine; first compound 0.2 µM) | relative viability (Erlotinib + Decitabine; first compound 0.6325 µM) | relative viability (Erlotinib + Decitabine; first compound 2 µM) |
| --- | --- | --- | --- | --- | --- | --- | --- | --- | --- | --- | --- | --- | --- | --- | --- | --- | --- | --- | --- | --- |
| 201T | 0.456 | 0.592 | 0.323 | 0.292 | 1.24 | 1.21 | 1.21 | 0.524 | 0.663 | 0.776 | 0.188 | 0.206 | 0.609 | 0.527 | 0.45 | 0.31 | 0.851 | 0.793 | 0.824 | 0.8 |
| A549 |  |  |  |  | 1.14 | 0.0945 | 0.0413 | 0.0451 |  |  |  |  |  |  |  |  | 0.263 | 0.294 | 0.266 | 0.262 |
| A-427 | 0.698 | 0.402 | 0.124 | 0.131 | 1.05 | 0.691 | 0.174 | 0.167 | 0.421 | 0.326 | 0.159 | 0.176 | 0.675 | 0.306 | 0.227 | 0.269 | 0.585 | 0.562 | 0.592 | 0.582 |
| ABC-1 | 0.498 | 0.178 | 0.196 | 0.207 |  |  |  |  | 0.436 | 0.245 | 0.213 | 0.201 | 0.83 | 0.365 | 1.18 | 0.229 |  | 0.962 | 0.923 | 1.12 |
| BEN | 0.256 | 0.369 | 0.311 | 0.14 | 0.0788 | 0.0854 | 0.0605 | 0.0596 | 0.31 | 0.296 | 0.24 | 0.219 | 0.595 | 0.62 | 0.327 | 0.321 | 0.711 | 0.72 | 0.841 | 0.66 |
| CAL-12T | 0.495 | 0.204 | 0.124 | 0.12 | 1.47 | 0.879 | 0.261 | 0.21 | 0.718 | 0.599 | 0.216 | 0.17 | 0.584 | 0.502 | 0.347 | 0.189 |  |  |  |  |
| COR-L23 | 0.503 | 0.207 | 0.0898 | 0.101 | 0.964 | 0.301 | 0.123 | 0.126 | 0.755 | 0.658 | 0.245 | 0.153 |  |  |  |  | 0.425 | 0.432 | 0.49 | 0.434 |
| COR-L 105 | 0.327 | 0.181 | 0.197 | 0.185 | 0.83 | 0.27 | 0.293 | 0.281 | 0.606 | 0.292 | 0.284 | 0.231 |  |  |  |  | 0.729 | 0.463 | 0.41 | 0.351 |
| Calu-6 |  |  |  |  | 0.794 | 0.113 | 0.134 | 0.102 |  |  |  |  |  |  |  |  |  |  |  |  |
| ChaGo-K-1 | 0.547 | 0.504 | 0.225 | 0.257 | 0.694 | 0.746 | 0.244 | 0.299 | 0.54 | 0.575 | 0.279 | 0.189 | 0.88 | 0.685 | 0.404 | 0.222 | 0.528 | 0.51 | 0.496 | 0.518 |
| EBC-1 |  |  |  |  | 0.461 | 0.203 | 0.145 | 0.17 |  |  |  |  |  |  |  |  |  |  |  |  |
| EKVX | 0.501 | 0.413 | 0.241 | 0.195 | 0.697 | 0.861 | 0.435 | 0.264 | 0.661 | 0.655 | 0.503 | 0.26 | 0.647 | 0.56 | 0.584 | 0.289 | 0.341 | 0.232 | 0.234 | 0.212 |
| EMC-BAC-2 | 0.273 | 0.245 | 0.131 | 0.142 | 1.23 | 0.785 | 0.199 | 0.25 | 0.369 | 0.325 | 0.197 | 0.149 | 1.04 | 0.411 | 0.349 | 0.281 |  | 0.882 | 0.951 | 0.82 |
| EPLC-272H | 0.342 | 0.307 | 0.106 | 0.103 | 0.984 | 1.05 | 1.1 | 0.138 | 0.287 | 0.312 | 0.209 | 0.224 | 0.139 | 0.23 | 0.104 | 0.144 | 0.362 | 0.332 | 0.324 | 0.316 |
| H3255 | 0.323 | 0.316 | 0.331 | 0.235 | 0.513 | 0.499 | 0.216 | 0.105 | 0.683 | 0.659 | 0.548 | 0.306 | 0.832 | 0.746 | 0.548 | 0.211 |  | 0.433 | 0.244 | 0.168 |
| HARA | 0.27 | 0.235 | 0.0621 | 0.0732 | 1.1 | 0.129 | 0.0715 | 0.101 | 0.612 | 0.327 | 0.073 | 0.0736 | 0.315 | 0.232 | 0.0942 | 0.158 | 0.69 | 0.49 | 0.374 | 0.353 |
| HCC-15 | 0.587 | 0.221 | 0.112 | 0.112 | 0.685 | 0.515 | 0.246 | 0.148 | 0.61 | 0.412 | 0.153 | 0.157 | 1.26 | 1.19 | 0.926 | 0.255 | 0.642 | 0.623 | 0.644 | 0.563 |
| HCC-44 |  |  |  |  | 0.897 | 0.787 | 0.823 | 0.257 | 0.466 | 0.555 | 0.185 | 0.21 | 1.04 | 1.05 | 1.02 | 0.971 | 1 | 0.972 |  | 1 |
